Experimental data: US5298517A, “Angiotensin II receptor blocking agents” (American Cyanamid Company, priority 1993, dated 1994)

Target: T1, Angiotensin II Receptor (Bos taurus, UniProt P25104)
T1 construct: The brownish tissue forming the adrenal cortex is scraped off and finely minced with scissors before homogenization; tissue local slaughter house (Maxwell-Cphen); host or cells: beef adrenal cortex, microsomal membranes
T1 sequence (P25104 1-359): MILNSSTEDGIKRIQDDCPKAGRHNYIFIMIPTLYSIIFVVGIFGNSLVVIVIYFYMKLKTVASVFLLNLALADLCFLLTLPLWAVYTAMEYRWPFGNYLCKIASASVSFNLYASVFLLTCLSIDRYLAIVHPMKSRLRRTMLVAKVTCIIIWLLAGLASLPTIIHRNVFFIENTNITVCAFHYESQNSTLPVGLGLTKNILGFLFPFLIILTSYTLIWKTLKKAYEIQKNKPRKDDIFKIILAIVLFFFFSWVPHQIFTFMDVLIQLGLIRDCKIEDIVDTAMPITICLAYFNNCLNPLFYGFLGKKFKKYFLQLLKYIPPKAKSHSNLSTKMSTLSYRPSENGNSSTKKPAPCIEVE
Experiment: Angiotensin II receptor binding, displacement of [^125 I](Sar^1,Ile^8)AngII from beef adrenal cortex membranes
Conditions: pH 7.4, 60 min, room temperature, triplicate
Text: Beef adrenals are obtained from a local slaughter house (Maxwell-Cphen). [^125 I](Sar^1,Ile^8)AngII, S.A. 2200 Ci/mmole, is purchased from Dupont (NEN®, Boston, Mass.). All unlabeled AngII analogs, Dimethylsulfoxide (DMSO), nucleotides, bovine serum albumin (BSA) are purchased from Sigma Chemical Co., St. Louis, Mo. U.S.A.
Approximately sixteen (16) to twenty (20) beef adrenal glands are processed as follows: fresh adrenal glands received on crushed ice are cleaned of fatty tissues and the tough membranes encapsulating the glands are removed and discarded. The brownish tissue forming the adrenal cortex is scraped off and finely minced with scissors before homogenization. Care is taken to avoid contamination with medullary tissue during dissection. The scraped cortices are suspended in twenty volumes of an ice-cold buffer medium consisting of 10 mM Tris.HCl (pH 7.4 at 22° C.) and containing 1.0 mM EDTA and 0.2 M sucrose. Unless otherwise indicated, all subsequent operations are done at 4° C. […] This P2 pellet is discarded and the liquid phase is carefully decanted off in clean centrifuge tubes and recentrifuged at high speed ([…]) […] the protein content of the preparation is determined by the Lowry's method (Lowry, O. H., Rosebrough, N. F., Farr, A. L. and Randall, R. J., Protein measurement with Folin phenol reagent. J. Biol. Chem., […], 265-275, 1951). […]

IC50: 34 nM
Compound: CCCCc1nc(Cl)c([C@@]2(C)C[C@@H]3CCCN3O2)n1Cc1ccc(-c2ccccc2-c2nn[nH]n2)cc1 (racemic) [Example 8, Cis-(+/-)-2-[2-Butyl-4-chloro-1-[[2'-(1H-tetrazol-5-yl)[1,1'-biphenyl]-4-yl]methyl]-1H-imidazol-5-yl]hexahydro-2-methyl-pyrrolo[1,2-b]isoxazole]
